Where two headings read alike, the source gives them in different places.

Assay [1] has as its system H358 cells with KRAS G12C + Y96D. The note with it: 2D, monotherapy. The text has this: (§1) Briefly, each KRAS mutation was introduced using a Prime STAR Mutagenesis Basal Kit (Takara) with designed primers into the pBABE-puro-KRas construct (Addgene, Cambridge, MA, USA). Retroviral particles were generated by co-transfection of each pBABE-puro-KRAS construct and pVSV-G vector (Clontech, Fremont, CA, USA) into gp-IRES 293 cells with FuGENE6 transfection reagent (Roche Diagnostics, Basel, Switzerland). Viral particles were concentrated using a retrovirus concentration kit (Clontech). […] The transfected Ba/F3 cells or H358 cells were selected with 0.8-1.0 μg/mL or 2.0 μg/mL of puromycin, respectively. […]
(§2) In the two-dimensional (2D) growth inhibition assay, 5x10^3 cells were cultured in 96-well plates for 24 hours and treated with reagents at ten different concentrations for 72 hr. […] The amount of formazan dye, which reflects cell viability, was measured by reading the absorbance at 450 nm using a multiplate reader (Tecan, Mannedorf, Switzerland). […] IC50 values were determined by a nonlinear regression curve fit utilizing a variable slope model with normalized the response in GraphPad prism version 8 (GraphPad Software, San Diego, CA). […]

The test system of assay [2] is H358 cells with KRAS G12C + Y96S. To be noted: 2D, monotherapy.
From the text: as §1, §2

The test system of assay [3] is H358 cells with KRAS G12C + Y96D. To be noted: 3D, monotherapy.
From the text: (§3) Briefly, each KRAS mutation was introduced using a Prime STAR Mutagenesis Basal Kit (Takara) with designed primers into the pBABE-puro-KRas construct (Addgene, Cambridge, MA, USA). Retroviral particles were generated by co-transfection of each pBABE-puro-KRAS construct and pVSV-G vector (Clontech, Fremont, CA, USA) into gp-IRES 293 cells with FuGENE6 transfection reagent (Roche Diagnostics, Basel, Switzerland). Viral particles were concentrated using a retrovirus concentration kit (Clontech). Ba/F3 cells (3×103) or H358 cells (1×104) were transfected with each retrovirus and cultured at 37° C. for a few days. The transfected Ba/F3 cells or H358 cells were selected with 0.8-1.0 μg/mL or 2.0 μg/mL of puromycin, respectively. […]
as §2

Assay [4] relates to H358 cells with KRAS G12C + Y96S. The note with it: 3D, monotherapy.
From the text: as §3, §2

The subject of assay [5] is Ba/F3 cells harboring KRAS G12C + A59S (introduced). Description: growth inhibition assay, Ba/F3 cells with introduced KRAS G12C plus secondary mutation. It counts as cell-based, murine. To be noted: Mus musculus, BaF3; Table 3, Ba/F3 G12C + A59S, 72 hours. From the text:
(§4) Briefly, each KRAS mutation was introduced using a Prime STAR Mutagenesis Basal Kit (Takara) with designed primers into the pBABE-puro-KRas construct (Addgene, Cambridge, MA, USA). Retroviral particles were generated by co-transfection of each pBABE-puro-KRAS construct and pVSV-G vector (Clontech, Fremont, CA, USA) into gp-IRES 293 cells with FuGENE6 transfection reagent (Roche Diagnostics, Basel, Switzerland). Viral particles were concentrated using a retrovirus concentration kit (Clontech). Ba/F3 cells (3×103) or H358 cells (1×104) were transfected with each retrovirus and cultured at 37° C. for a few days. The transfected Ba/F3 cells or H358 cells were selected with 0.8-1.0 μg/mL or 2.0 μg/mL of puromycin, respectively. After puromycin selection, presence of each KRAS mutation was confirmed as follows; total RNA was extracted from cells using a mirVana miRNA Isolation Kit (Qiagen, Hilden, Germany), and cDNA was generated by reverse transcription using ReverTra Ace (TOYOBO, Osaka, Japan). The KRAS coding sequence was amplified by PCR. The KRAS nucleotide sequence was checked by Sanger sequencing using the 3130 or 3500XL Genetic Analyzer (Applied Biosystems, Waltham, MA).
(§5) In the two-dimensional (2D) growth inhibition assay, 5x10^3 cells were cultured in 96-well plates for 24 hours and treated with reagents at ten different concentrations for 72 hr. Cell viability assays were performed using Cell Counting Kit-8 (Dojindo Laboratories, Kumamoto, Japan). The amount of formazan dye, which reflects cell viability, was measured by reading the absorbance at 450 nm using a multiplate reader (Tecan, Mannedorf, Switzerland). In the 3D growth inhibition assay, 5×10^3 cells were embedded in growth factor-reduced Matrigel (Corning, New York, USA) and cultured in RPMI 1640 medium (Wako) with 10% FBS (Sigma-Aldrich) and P/S (Wako) in 96-well plates. After 72 hours of incubation, cells were treated with the indicated concentrations for 72 hours, and a cell viability assay was performed as described above. IC50 values were determined by a nonlinear regression curve fit utilizing a variable slope model with normalized the response in GraphPad prism version 8 (GraphPad Software, San Diego, CA).
(§6) The RI value was calculated with the following formula: IC50 of each reconstructed Ba/F3 cell/IC50 of parental Ba/F3 cells with KRAS G12C.
(§7) The results are shown as the mean values of three individual experiments. Error bars indicate the standard deviation (SD).

The test system of assay [6] is Ba/F3 cells harboring KRAS G12C + Y96D (introduced). The description is as above. Type of assay: cell-based, murine. The note with it: Table 3, Ba/F3 G12C + Y96D.
From the text: as §4, §5, §6, §7

The subject of assay [7] is Ba/F3 cells harboring KRAS G12C + Y96S (introduced). The assay is described as above. Type of assay: cell-based, murine. To be noted: Table 3, Ba/F3 G12C + Y96S.
From the text: as §4, §5, §6, §7

Assay [8] has as its system Ba/F3 cells harboring KRAS G12C. Description: growth inhibition assay, Ba/F3 cells with KRAS G12C. Type of assay: cell-based, murine. To be noted: Mus musculus, BaF3; Table 3, Ba/F3 G12C, 72 hours.
From the text: as §3, §2

Assay [9] concerns H358 cells harboring G12C plus Y96S. To be noted: 72 hours, FIG. 4.
From the text: as §3, §2

The test system of assay [10] is H358 cells harboring G12C plus Y96D. The note with it: 72 hours, FIG. 4.
From the text: as §3, §2

`COc1cc2nc(C)nc(N[C@H](C)c3cc(N)cc(C(F)(F)F)c3)c2cc1O[C@H]1CCOC1` [BI-3406]: the “growth inhibition” value in assay [1], in assay [2], in assay [3] and in assay [4] was “modestly inhibited growth” in each case.

In general, IC50 refers to the concentration needed to halve the response being measured. With `C[C@@H]1OCC2(CCN(c3cnc(Sc4ccnc(N)c4Cl)c(N)n3)CC2)[C@@H]1N` [TNO 155], the IC50 in [5] is 3.05 µM; in assay [6] (Mus musculus, BaF3, 72 h), above 1000 nM; in [6] (72 hours), 1090 nM; in assay [7] (Mus musculus, BaF3, 72 h) it was above 1000 nM; in assay [7] (72 hours), 1150 nM; in assay [8], 455 nM.

`C=CC(=O)N1CCN(c2nc(=O)n(-c3c(C)ccnc3C(C)C)c3nc(-c4c(O)cccc4F)c(F)cc23)[C@@H](C)C1` [sotorasib]: the “IC50 compared to parental H358 cells” value in [9] and in assay [10] was “approximately 30 times” each time.
